Results from patent US20180340225A1 (SHANGHAI INSTITUTE FOR ENDOCRINE AND METABOLIC DISEASES, priority 2015, published 2018).

Test system: patients with Type 2 diabetes
Assay: Clinical efficacy indexes before and after 3 months of Acarbose treatment in naïve patients with Type 2 diabetes, by enterotype
Type: in vivo, human
Details: Bacterioide enterotype, After treatment
Experimental: For naïve patients with Type 2 diabetes, their liver and kidney functions, blood glucose and lipid levels, intestinal hormones, inflammatory factors, and cardiovascular risk-related factors are evaluated before medication. Their stool, urine, and blood samples are retained. […] The patients' blood glucose levels are followed up every month within 3 months, and the medication is adjusted according to the blood glucose level. Three months later, the pre-medication assessment is repeated, and the urine, stool and blood samples are retained.
a) A randomized, opened, positive control method is adopted to collect the naïve patients with Type 2 diabetes and normal controls of their spouses. […] The newly diagnosed patients of Type 2 diabetes without medication receive routine examinations, including the retention of stool and blood samples.
i. Draw venous blood 15 ml under fasting condition, of which, 1.5 ml is used for detection of plasma glucose, 6.5 ml is added to ordinary tubes (including aprotinin, DPPV inhibitor), and 6.5 ml is added to anticoagulant tubes (including heparin and RNA later)
ii. Centrifuge the blood in ordinary tube at 4° C., when serum is separated out, draw about 3 ml, and divide to three 1.5 ml Eppendorf on average, then tighten the tube caps;
iii. Centrifuge the anticoagulation blood immediately at 4° C., to separate out about 3 ml of plasma, then divide to three 1.5 ml imported RNAase free Eppendorf tubes on average, […]

SMILES: C[C@H]1O[C@H](O[C@H]2[C@H](O)[C@@H](O)[C@@H](O[C@H]3[C@H](O)[C@@H](O)C(O)O[C@@H]3CO)O[C@@H]2CO)[C@H](O)[C@@H](O)[C@@H]1N[C@H]1C=C(CO)[C@@H](O)[C@H](O)[C@H]1O (stereo partly shown) [Acarbose]
- AKP Mean: 59.23
- ALB Mean: 42.26
- ALT Mean: 29.43
- APOA Mean: 1.2475
- APOB Mean: 0.9636
- AST Mean: 22.46
- Adipisin Mean: 3174901.441
- Adpn Mean: 5157339.824
- BMI Mean: 25.51
- BW Mean: 71.91
- CP0 Mean: 2.216
- CP30 Mean: 2.7525
- CP60 Mean: 3.71
- CP120 Mean: 5.204
- CP180 Mean: 4.843
- DBIL Mean: 2.966
- DBP Mean: 75.37
- ENDOM Mean: 13.44
- Endothelin Mean: 4.159
- FABP3 Mean: 2351
- FABP4 Mean: 11504.54286
- FGF1M Mean: 22.57
- FGF2M Mean: 12.69
- FGF19M Mean: 19.74
- FGF23M Mean: 37.07
- G30 Mean: 7.623
- G60 Mean: 9.074
- G120 Mean: 9.171
- G180 Mean: 7.941
- GIP0 Mean: 80.26
- GIP30 Mean: 219.1
- GIP60 Mean: 258.945
- GIP120 Mean: 264
- GIP180 Mean: 201.6
- GMCSFM Mean: 64.62
- GO Mean: 6.607
- HB Mean: 140.6
- HBA1C Mean: 6.425
- HDL Mean: 2.989
- HGF Mean: 434.2
- HIP Mean: 98.83
- HOMA.IR Mean: 2.487
- IFNr1 Mean: 42.1
- IL1B Mean: 0.5324
- IL1bM Mean: 14.66
- IL2M Mean: 53.46
- IL4M Mean: 30.73
- IL5M Mean: 38.44
- IL6M Mean: 55.85
- IL6 Mean: 4.846
- IL8 Mean: 11.92
- IL9M Mean: 84.63
- IL10 Mean: 2.301
- IL12 Mean: 10.12
- IL13 Mean: 311.7
- IL15M Mean: 333.3
- IL17AM Mean: 33.74
- IL17EM Mean: 22.24
- IL17FM Mean: 181.4
- IL21 Mean: 29.13
- IL22M Mean: 42.5
- IL23M Mean: 39.35
- IL27 Mean: 61.28
- IL28a Mean: 20.04
- IL31M Mean: 113
- IL33M Mean: 42.13
- INS0 Mean: 8.284
- INS30 Mean: 14.5
- INS60 Mean: 23.7
- INS120 Mean: 30.33
- INS180 Mean: 22.83
- K Mean: 7.893
- LBP Mean: 17.36
- LDL Mean: 1.242
- LEPTIN Mean: 6481
- LPA Mean: 32.841
- Lymph Mean: 28.87
- MCP1 Mean: 256.6
- MIP3A Mean: 43.77
- NEU Mean: 58.47
- NGAL Mean: 125535.0294
- NGF Mean: 1.865
- Na Mean: 136.9
- PAI1 Mean: 52769.94118
- PDGFAA Mean: 4702
- PDGFAABB Mean: 24130.63636
- PP0 Mean: 80.32
- PP30 Mean: 331.7
- PP60 Mean: 330.8
- PP120 Mean: 258.8
- PP180 Mean: 174
- RANTES Mean: 50811.91176
- RBC Mean: 4.832
- RCv Mean: 2.58
- SBP Mean: 120.9
- TBIL Mean: 16.36
- TC Mean: 4.736
- TG Mean: 1.525
- TNFBM Mean: 38.44
- TNFa Mean: 4.773
- TPRO Mean: 70.11
- Trophonin M Mean: 16.15
- WAIST Mean: 88.45
- WBC Mean: 6.913
- WHR Mean: 0.8956
- bun Mean: 329.2
- creatine Mean: 67.61
- crp Mean: 29.96
- egf Mean: 183.4
- fetuinA Mean: 400.9
- fgf1 Mean: 11.66
- fgf2 Mean: 35.4
- fgf21M Mean: 100.1
- fgf21 Mean: 0.37
- monocyte Mean: 5.481
- mpo Mean: 275.8
- oscatinM Mean: 86.94
- pCP0 Mean: 1099
- pCP30 Mean: 1394
- pCP60 Mean: 1891
- pCP120 Mean: 2787
- pCP180 Mean: 2452
- pGLP10 Mean: 4.564
- pGLP130 Mean: 12.21
- pGLP160 Mean: 13.2
- pGLP1120 Mean: 10.47
- pGLP1180 Mean: 7.518
- pHOMA.IR Mean: 2.565
- pgh0 Mean: 55.75
- pgh30 Mean: 70.15
- pgh60 Mean: 66.51
- pgh120 Mean: 58.56
- pgh0180 Mean: 60.3
- pgluc0 Mean: 37.3
- pgluc30 Mean: 43.28
- pgluc60 Mean: 43.96
- pgluc120 Mean: 35.95
- pgluc180 Mean: 32.29
- pins0 Mean: 391
- pins30 Mean: 561.8
- pins60 Mean: 892.8875
- pins120 Mean: 1169
- pins180 Mean: 916.7
- platelet Mean: 214
- ppyy0 Mean: 49.602
- ppyy30 Mean: 55.74
- ppyy60 Mean: 59.37
- ppyy120 Mean: 54.45
- ppyy180 Mean: 56.15
- rGT Mean: 24.82
- resistin Mean: 14639.64706
- sicam1 Mean: 112.3
- svcam1 Mean: 484.8
- urea Mean: 4.731
- vegfa Mean: 475.2
- vegfc Mean: 106.3
- vegfd Mean: 145.4
